The target in assay [1] is T1, P23H opsin (Mus musculus, UniProt P15409, P23H).
T1 construct: expressed in transfected cells
As to the kind of experiment: Immunoblot of P23H opsin glycosylation in NIH3T3 cell lysates. The format is cell-based. Also noted: key to Improved glycosylation: n = no; y = yes. To be noted: for Improved glycosylation: P23H opsin; for effect on glycosylation of P23H opsin (in words): immunoblot, PNGaseF, 10 µM YC-001, 5 µM 9-cis-retinal, 10 µM scriptaid. As to the method: NIH3T3-(P23H opsin/GFP) or NIH3T3-(WT-opsin/GFP) cells were seeded in a 48-well plate (Corning Costar) at 3.2 × 10^5 cells per well and incubated at 37 °C with 5% CO2 for 2 h. One hundred-µL of assay medium containing a compound at 5× its final concentration was added to each well. The plate was gently shaken for 5 s before further incubation at 37 °C with 5% CO2 for 24 h. The assay medium then was aspirated, and cells were lysed with 100 µL per well PBS containing 0.1% Triton X-100 and complete protease inhibitor cocktail (Roche, Basel, Switzerland) followed by sonication for 3 s. Protein concentrations were determined with the Bradford assay. For PNGaseF catalyzed deglycosylation, 3 µL of PNGaseF (1500 U, NEB) was added to the cell lysate and the mixture was incubated at room temperature for 1 h before immunoblotting. For NIH3T3-(P23H opsin/GFP) cells, 15 µg of total protein were loaded per well onto an SDS-polyacrylamide gel; whereas for NIH3T3-(WT-opsin/GFP) cells, 5 µg of total protein was loaded per well. Opsin protein was immunostained with 0.2 μg mL^−1 horseradish peroxidase-conjugated 1D4 anti-rhodopsin antibody. Band intensities were measured with ImageJ software (http://imagej.nih.gov/ij/; National the Institutes of Health, Bethesda, MD, USA) and normalized to a glyceraldehyde 3-phosphate dehydrogenase (GAPDH) loading control. Full scans of immunoblotted membranes are shown in Supplementary Fig. 8.
(In western blotting, separated proteins are transferred to a membrane and probed.)

Assay [2] deals with T2, bovine opsin (Bos taurus, UniProt P02699).
T2 construct: ROS membranes were isolated from bovine retinas under dim red light; from tissue; host or cells: bovine retina, rod outer segment (ROS) disc membranes, bleached with hydroxylamine
T2 sequence (P02699 whole entry): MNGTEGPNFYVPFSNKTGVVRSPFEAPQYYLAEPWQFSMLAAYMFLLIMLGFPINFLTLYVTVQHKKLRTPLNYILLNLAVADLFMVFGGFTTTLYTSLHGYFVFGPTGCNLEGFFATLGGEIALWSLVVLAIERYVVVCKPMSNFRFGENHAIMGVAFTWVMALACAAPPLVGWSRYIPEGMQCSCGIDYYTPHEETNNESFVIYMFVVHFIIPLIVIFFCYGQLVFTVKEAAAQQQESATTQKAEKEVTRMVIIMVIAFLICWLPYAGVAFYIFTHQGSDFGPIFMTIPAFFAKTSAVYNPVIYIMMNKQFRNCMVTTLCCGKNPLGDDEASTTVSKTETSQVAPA
Kind of assay: Ligand-binding assay by Trp fluorescence quenching, opsin in ROS disc membranes. The settings on record: 20 °C, mean of three biological repeats ± s.d.; for EC50: read-out: EC50 of Trp fluorescence quenching at 330 nm (ΔF/F0). As to the method:
ROS membranes were isolated from bovine retinas under dim red light. To remove membrane associated proteins, ROS membranes were washed with a hypotonic buffer composed of 5 mM bis-tris propane (BTP) and 1 mM EDTA, pH 7.5, followed by gentle homogenization with subsequent centrifugation at 25,000×g for 30 min. This procedure was repeated four times. The final membrane pellet was suspended in 10 mM sodium phosphate buffer, pH 7.0, and 50 mM hydroxylamine to a 3 mg mL^−1 concentration of rhodopsin, placed on ice and illuminated with a 150 Watt bulb for 30 min. Membranes were pelleted by centrifugation at 16,000×g for 5 min and then washed four times with 10 mM sodium phosphate buffer, pH 7.0, and 2% bovine serum albumin followed by 4 washes with 10 mM sodium phosphate buffer, pH 7.0, and two washes with 20 mM BTP, pH 7.5, and 100 mM NaCl. The concentration of opsin was measured with a UV–visible spectrophotometer and quantified using the absorption coefficient ε280 nm = 81,200 M^−1 cm^−1[64].
Emission spectra were recorded with a PerkinElmer L55 Luminescence Spectrophotometer at 20 °C between 300 and 450 nm after excitation at 295 nm, with excitation and emission slit bands set at 5 and 10 nm, respectively. Changes in Trp fluorescence (ΔF/F0; where ΔF is the difference between the initial Trp fluorescence recorded at 330 nm (F0) and Trp fluorescence recorded at 330 nm at a specified YC-001 concentration) were plotted as a function of the ligand concentration. Binding curves were fitted by the Hill function using Origin software for each compound and the EC50 was calculated. All experimental data were corrected for background and self-absorption of excitation and emission light (inner filter effect).

SMILES strings stand for the structures.

Turning to `CC1=C(/C=C/C(C)=C\C=C\C(C)=C\C=O)C(C)(C)CCC1` [9-cis-retinal, reference compound], in assay [1], the Improved glycosylation entry was “y” and the “effect on glycosylation of P23H opsin (in words)” value (“effect on glycosylation” for short) is reported as “improvement of glycosylation”. For the same molecule, the EC50 in assay [2] was 1200 ± 100 nM.

For `O=C(CCCCCN1C(=O)c2cccc3cccc(c23)C1=O)NO` [Scriptaid, reference compound], in assay [1], the Improved glycosylation entry is on record as “n” and the “effect on glycosylation” value is given as “does not affect the glycosylation”. Besides, in assay [2], the “EC50 of Trp fluorescence quenching at 330 nm (ΔF/F0)” value is “did not affect Trp fluorescence”.

As to `O=C1OCC(c2ccc(Cl)s2)=C1c1cccs1` [YC-001], in assay [1], the Improved glycosylation entry is on record as “y” and the “effect on glycosylation” value was “improvement of glycosylation”. Also, the EC50 in assay [2] came to 980 ± 50 nM.

(Values after PMC5958115, “A novel small molecule chaperone of rod opsin and its potential therapy for retinal degeneration” (Nature Communications, 2018).)
